Laboratory results published in patent publication US20220211037A1, “BIOSENSORS FOR DROUGHT STRESS IN PLANTS” (The Regents of the University of California, priority 2019, published 2022).
pKd: −log10 of the molar value. Like-named read-outs stand apart in the source and are kept apart here.

Columns and labels:
[1] = target: T1, PYL3-Cy5.5 and PYL3-BHQ3 dimers (hetero- and homodimers) (Arabidopsis thaliana, UniProt Q9SSM7); test: Static light scattering (SLS) average molar mass of PYL3-Cy5.5 / PYL3-BHQ3 mixture as a function of ABA concentration; assay type: biochemical; settings: for PYLs in dimers (hetero- and homodimers, %) / PYLs in monomers (%): calculated using the SLS data
T1 construct: made in house; host or cells: E. coli BL21[DE3], pET28
T1 sequence (Q9SSM7 1-209) 1: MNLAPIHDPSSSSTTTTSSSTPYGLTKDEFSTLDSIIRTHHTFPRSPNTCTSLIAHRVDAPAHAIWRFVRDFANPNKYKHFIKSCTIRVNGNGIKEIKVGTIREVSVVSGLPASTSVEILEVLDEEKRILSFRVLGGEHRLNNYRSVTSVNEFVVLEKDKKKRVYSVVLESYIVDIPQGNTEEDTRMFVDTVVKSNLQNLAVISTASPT
T1 sequence (Q9SSM7 1-209) 2: T1 sequence (Q9SSM7 1-209) 1
Description: (§1) UV-Vis absorption measurements were performed on PYL3-Cy5.5, PYL3-BHQ3, and a 1:1 mixture of PYL3 containing PYL3-Cy5.5 and PYL3-BHQ3 (Shimadzu UV-Vis-NIR spectrophotometer, UV1700). […] Static light scattering (SLS) was used to determine the average molar mass (Malvern Zetasizer Nano S90 fitted with a 633 nm He—Ne laser). The mass of PYL3, PYL3-Cy5.5 and PYL3-BHQ3 was measured using Bruker UltraFlextreme MALDI TOF. Samples for MALDI-TOF measurement were prepared using a dried droplet method in a 2,5-Dihydroxyacetophenone (2,5-DHAP) matrix. The mass spectra were acquired with laser repetition frequency of 0.7-1 kHz.

[2] = target: T2, PYL3-Cy5.5/PYL3-BHQ3 heterodimer mixture (Arabidopsis thaliana, UniProt Q9SSM7); test: Fluorescence of 1:1 PYL3-Cy5.5 / PYL3-BHQ3 mixture as a function of ABA concentration; assay type: biochemical; settings: for Fluorescence from Cy5.5 in monomers / Sum of Cy5.5 fluorescence / Total fluorescence / Fluorescence from Cy5.5 in heterodimers / Fluorescence from Cy5.5 in homodimers: calculated; for Total fluorescence: BHQ3 concentration attenuation factor 0.27; for Fluorescence from Cy5.5 in heterodimers: FRET quenching factor 0.1; for Fluorescence from Cy5.5 in homodimers: self-quenching factor 0.8
T2 construct: made in house; host or cells: E. coli BL21[DE3], pET28
T2 sequence (Q9SSM7 1-209) 1: T1 sequence (Q9SSM7 1-209) 1
T2 sequence (Q9SSM7 1-209) 2: T1 sequence (Q9SSM7 1-209) 1
Description: This increase should arise from more dissociated PYL3-Cy5.5/PYL3-BHQ3 monomers, which lead to decreased FRET quenching of Cy5.5 by BHQ3 in the heterodimers and decreased self-quenching from Cy5.5 in PYL3-Cy5.5/PYL3-Cy5.5 homodimers as shown in FIG. 2C. Assuming BHQ3 in PYL3-BHQ3 behaves similarly as free BHQ3 in solutions, BHQ3 concentration dependent attenuation (FIG. 3D) is 64%, i.e., fluorescence is decreased to 36% of the signal of pure Cy5.5, at the BHQ3-PYL3 concentration of 4.0 μM used in the measurements. FRET quenching of Cy5.5 by BHQ3 in heterodimers is assumed to be 90%. […] In calculating the final fluorescence intensities (Total fluorescence) in Table 1, we employ the self-quenching, FRET quenching and BHQ3 concentration-dependent attenuation efficiency of 20%, 90% and 73.2%, respectively. The corresponding factors are 0.8, 0.1 and 0.27, respectively. The BHQ3 concentration dependent attenuation efficiency is slightly higher than 64% measured using a mixture of 4 μM of Cy5.5 and 4 μM BHQ3. The calculated final fluorescence intensities are within the standard deviations of the measured values.
For the data presented in Table 1, a self-quenching efficiency of 20% and BHQ3 concentration dependent quenching shown in FIG. 3C are used for calculation together with a calibrated fluorescence intensity of 79,653 cps from 4.65 μM Cy5.5. Units of fluorescence intensity are counts per second (cps). The values are calculated unless specified otherwise.^a Fluorescence intensity=amount of Cy5.5×calibrated unit fluorescence intensity.^b Fluorescence intensity=amount of Cy5.5×self-quenching factor (0.8)×calibrated unit fluorescence intensity.^c Fluorescence intensity=amount of Cy5.5×FRET quenching factor (0.1)×calibrated unit fluorescence intensity.^d Sum of a, b, and c.^e Total fluorescence=BHQ3 concentration attenuation factor (0.27)×d.

PYL3-Cy5.5 homodimers [3] = target: T3, PYL3-Cy5.5 homodimers (Arabidopsis thaliana, UniProt Q9SSM7); test: Static light scattering (SLS) average molecular mass of PYL3-Cy5.5 as a function of ABA concentration; assay type: biochemical
T3 construct: made in house; host or cells: E. coli BL21[DE3], pET28
T3 sequence (Q9SSM7 1-209): T1 sequence (Q9SSM7 1-209) 1
Description: as §1
Results from Static Light Scattering (SLS) measurements were used to estimate average molecular mass (FIG. 2D) based on molecular motion in solution, although the method is controversial when the molecular mass is on the order of a few thousand atomic mass units.

PYL3-Cy5.5 homodimers [4] = target: T3, PYL3-Cy5.5 homodimers; test: Fluorescence of PYL3-Cy5.5 as a function of ABA concentration (self-quenching); assay type: biochemical
Description: as §1
Fluorescence from PYL3 and BHQ3-PYL3 homodimers in aqueous solution is weak, whereas fluorescence from PYL3-Cy5.5 homodimers (FIG. 2B) was as similarly intense as that of Cy5.5. […] If there is no change to the fluorescence intensity, then no self-quenching occurs. […] This quenching efficiency was used to estimate the quenching efficiency between Cy5.5 and BHQ3 in PYL3 heterodimers.

[5] = target: T4, homodimeric receptor PYL3 (Arabidopsis thaliana, UniProt Q9SSM7); settings: read-out: equilibrium dissociation constant (Kd) of homodimeric receptor PYL3, cited from earlier work
T4 sequence (Q9SSM7 1-209): T1 sequence (Q9SSM7 1-209) 1

In the case of `CC1=CC(=O)CC(C)(C)[C@@]1(O)/C=C/C(C)=C\C(=O)O` [ABA, abscisic acid], the “average molecule mass (SLS) of PYL3-Cy5.5 / PYL3-BHQ3 mixture” value ([1]; 100 nM ABA) was 50 kDa, the “Average molar mass (measured, amu)” value ([1]; ABA 0.1 μM) was 51110 amu and the “PYLs in dimers (hetero- and homodimers, %)” value ([1]; ABA 0.1 μM) was 98%. For the same molecule, the “PYLs in monomers (%)” value ([1]; ABA 0.1 μM) was 2%, the “Average molar mass (measured, amu)” value ([1]; ABA 1.0 μM) was 47410 amu and the “PYLs in dimers (hetero- and homodimers, %)” value ([1]; ABA 1.0 μM) was 84%. For the same molecule, the “PYLs in monomers (%)” value ([1]; ABA 1.0 μM) was 16%, the “Average molar mass (measured, amu)” value ([1]; ABA 40 μM) was 43330 amu and the “PYLs in dimers (hetero- and homodimers, %)” value ([1]; ABA 40 μM) was 68%. For the same molecule, the “PYLs in monomers (%)” value ([1]; ABA 40 μM) was 32%, the “Average molar mass (measured, amu)” value ([1]; ABA 100 μM) was 34050 amu and the “PYLs in dimers (hetero- and homodimers, %)” value ([1]; ABA 100 μM) was 32%. For the same molecule, the “PYLs in monomers (%)” value ([1]; ABA 100 μM) was 68%, the “Average molar mass (measured, amu)” value ([1]; ABA 1000 μM) was 31080 amu and the “PYLs in dimers (hetero- and homodimers, %)” value ([1]; ABA 1000 μM) was 20%. For the same molecule, the “PYLs in monomers (%)” value ([1]; ABA 1000 μM) was 80%, the “ABA concentration the current design can detect” value [2] was 200 nM and the “Fluorescence (measured)” value ([2]; ABA 0.1 μM) was 3960 cps. The “Fluorescence from Cy5.5 in monomers” value ([2]; ABA 0.1 μM) was 630 cps, the “Sum of Cy5.5 fluorescence” value ([2]; ABA 0.1 μM) was 14553 cps and the Total fluorescence ([2]; ABA 0.1 μM) was 4045 cps. For the same molecule, the “Fluorescence from Cy5.5 in heterodimers” value ([2]; ABA 0.1 μM) was 1575 cps, the “Fluorescence from Cy5.5 in homodimers” value ([2]; ABA 0.1 μM) was 12348 cps and the “Fluorescence (measured)” value ([2]; ABA 1.0 μM) was 4292 cps. The “Fluorescence from Cy5.5 in monomers” value ([2]; ABA 1.0 μM) was 5040 cps, the “Sum of Cy5.5 fluorescence” value ([2]; ABA 1.0 μM) was 16974 cps and the Total fluorescence ([2]; ABA 1.0 μM) was 4718 cps. The “Fluorescence from Cy5.5 in heterodimers” value ([2]; ABA 1.0 μM) was 1350 cps, the “Fluorescence from Cy5.5 in homodimers” value ([2]; ABA 1.0 μM) was 10584 cps and the “Fluorescence (measured)” value ([2]; ABA 40 μM) was 5301 cps. For the same molecule, the “Fluorescence from Cy5.5 in monomers” value ([2]; ABA 40 μM) was 10080 cps, the “Sum of Cy5.5 fluorescence” value ([2]; ABA 40 μM) was 19741 cps and the Total fluorescence ([2]; ABA 40 μM) was 5488 cps. For the same molecule, the “Fluorescence from Cy5.5 in heterodimers” value ([2]; ABA 40 μM) was 1092 cps, the “Fluorescence from Cy5.5 in homodimers” value ([2]; ABA 40 μM) was 8568 cps and the “Fluorescence (measured)” value ([2]; ABA 100 μM) was 6711 cps. For the same molecule, the “Fluorescence from Cy5.5 in monomers” value ([2]; ABA 100 μM) was 21420 cps, the “Sum of Cy5.5 fluorescence” value ([2]; ABA 100 μM) was 25866 cps and the Total fluorescence ([2]; ABA 100 μM) was 7218 cps. For the same molecule, the “Fluorescence from Cy5.5 in heterodimers” value ([2]; ABA 100 μM) was 514 cps, the “Fluorescence from Cy5.5 in homodimers” value ([2]; ABA 100 μM) was 4032 cps and the “Fluorescence (measured)” value ([2]; ABA 1000 μM) was 9494 cps. For the same molecule, the “Fluorescence from Cy5.5 in monomers” value ([2]; ABA 1000 μM) was 25200 cps, the “Sum of Cy5.5 fluorescence” value ([2]; ABA 1000 μM) was 28035 cps and the Total fluorescence ([2]; ABA 1000 μM) was 7793 cps. For the same molecule, the “Fluorescence from Cy5.5 in heterodimers” value ([2]; ABA 1000 μM) was 315 cps, the “Fluorescence from Cy5.5 in homodimers” value ([2]; ABA 1000 μM) was 2520 cps and the “change of fluorescence intensity of the mixture” value ([2]; ABA increased from less than one μM to one mM) was “more than doubled”. The “increase of fluorescence signal of the mixture” value ([2]; upon mixing with 100 μM ABA) was “more than 50%”, the “PYL3-Cy5.5 in the homodimer form” value (PYL3-Cy5.5 homodimers [3]; 0.1 μM ABA) was 94% and the “average molecular mass (SLS)” value (PYL3-Cy5.5 homodimers [3]; 0.1 μM ABA) was 50 kDa. For the same molecule, the “PYL3-Cy5.5 in the monomeric form” value (PYL3-Cy5.5 homodimers [3]; 0.1 μM ABA, 51.6 kDa homodimers, 25.8 kDa monomers chosen) was 6%, the “PYL3-Cy5.5 in the homodimer form” value (PYL3-Cy5.5 homodimers [3]; 1 mM ABA) was 24% and the “PYL3-Cy5.5 in the monomeric form” value (PYL3-Cy5.5 homodimers [3]; 1 mM ABA) was 76%. The “average molecular mass (SLS)” value (PYL3-Cy5.5 homodimers [3]; 1 mM ABA) was 30 kDa, the “decrease of average molecular mass of the species in solution” value (PYL3-Cy5.5 homodimers [3]; ABA increases from 100 nM to 40 μM) was about 20% and the “further decrease of average molecular mass of the species in solution” value (PYL3-Cy5.5 homodimers [3]; ABA increases from 50 to 100 μM) was 20%. For the same molecule, the “increase of fluorescence intensity of PYL3-Cy5.5” value (PYL3-Cy5.5 homodimers [4]; ABA increases from 0.1 μM to 1 mM, on average) was 20%.

In the case of “PYL3: Arabidopsis abscisic acid receptor PYL3 (SEQ ID NO:4), recombinant, forms homodimers that monomerize upon ABA binding”, the pKd ([5]; at saturating ABA concentrations) is listed as 4.28 and the pKd ([5]; without ABA) is listed as 5.11.

For “PYL3-Cy5.5: PYL3 protein monomer chemically conjugated to the fluorescent molecule Cy5.5”, the “self-quenching in the PYL3-Cy5.5 homodimers” value (PYL3-Cy5.5 homodimers [4]; absence of ABA, aqueous solution) was “at least 20%”.
